Reference: patent EP0106571A2, “Prophylactic substance or composition” (priority 1982, dated 1984)
Read-outs that look alike come from different tables or passages of the source.

Assays:
BL6 mouse melanoma cells [1] = details: GLA doses above 7 µg/ml, single dose, 7 days, plateau of the curve
Experimental: (§1) Thus each culture set comprised 13 separate experiments. […] Each set of dosages was duplicated for both cell lines. Thus, a total of 280 separate cultures were used for these determinations. For statistical treatment an average value of each duplicate was used as n = I. • (i) Growth Curves Protocol: The cells were seeded in a standard growth medium (McCoys 5A medium) from stock cultures into Greiner 50 ml plastic flasks at subconfluent densities ranging from I x 10^5 cells/flask.
(§2) These cultures flasks were incubated in a humidified atmosphere of 5% C02, 95% air at 37°C for 7 days. After this period cell counts and viabilities were determined, the latter by trypan blue dye exclusion.
(§3) Data Reduction and Statistical Analyses: Using the values of cell counts obtained as described above, the difference of each cell count from its control was expressed as a perecentage of the control. As the growth curves were repeated several times for each dose for both normal and cancer cells, the mean value and standard error was determined for each dose. […] For the purpose of presentation these percentage differences are expressed as the percentage reduction of growth rate (-GR%).

MDBK bovine kidney cells = details: any of the GLA doses (0.5 to 10 µg/ml), 7 days
Experimental: as §1, §2, §3

BL6 mouse melanoma cells [2] = experiment: cells
Experimental: as §1
Plates were incubated in a 5% C02 humidified atmosphere at 37 °C. For the final 24 hours, 0.4 µCl of [6^-3H]-thymidine or I µCl of L-[methyl -^3H] -methionine (New England Nuclear, Boston, Mass) was added to each incubation mixture on the micrplate. The cells were then collected using a Skatron automatic harvester onto glass fibre reinforced resin filters. The filters were dried and dissolved in 10 ml Picofluor ^TM30 (Packard). The [6-^3H] -thymidine incorporation into DNA and the L-[methyl-^3H] -methionine incorporation into proteins was counted on a Packard Tri-Carb scintillation counter.

human hepatoma cells = experiment: cells; details: for inhibition at 20 µg/mL: Homo sapiens, read-out: Reduction in growth rate (%), daily GLA 20 µg/ml; for GLA supplemented cell number (x10^4) Mean: daily GLA 20 µg/ml, n = 4
Experimental: To control flasks only 20µl of the sodium carbonate vehicle was added.
Cells: Cells of the human primary carcinoma of the liver line were provided by Dr. J.J. Alexander of the Division of Virology, Department of Microbiology, Medical University of South Africa. These cells were maintained in Grenier plastic flasks in McCoys 5A medium as described in Example I.
The cells were seeded in the standard growth medium from stock cultures into Greiner 50 ml plastic flasks at subconfluent densities ranging from 2 x 10^5 to 3 x 10^5 cells per flask. […] These culture flasks were included in a humidified atmosphere of 5% CO2, 95% air at 37°. At the end of each experiment the detached, dead cells were discarded with the culture medium. The living attached cells were trypsinised and then counted using a Coulter counter. Cell viability was checked by trypan blue dye exclusion. In addition, the culture flasks were viewed and photographed daily under a Nikon diaphot inverted phase microscope.
The cells were counted after 4 days in culture.

[3] = test system: Oesophageal carcinoma cells; details: 10 µg GLA per day for six days; for Cell count (x 10^6) + GLA Mean: Oesophageal Carcinoma, seeding density 0,14, n = 4
From the text: (§4) Cells: MG63. osteoid-sarcoma cells were obtained from Flow Laboratories. Oesophageal carcinoma cells were obtained from Prof. J. Alexander of the Department of Microbiology at Medunsa, South Africa. Control benign bovine kidney cells (MDBK) were from the same stock that were used in the previous examples.

[4] = test system: benign bovine kidney cells (MDBK); details: for Cell count (x 10^6) + GLA Mean: MDBK, seeding density 0,3, daily GLA, n = 4
From the text: as §4

BL6 mouse melanoma cells [5] = details: GLA 20 µg/ml daily for two weeks
Experimental: Only 20µI of the sodium carbonate vehicle was added to control flasks.
Malignant BL6 mouse melanoma cells were maintained in Griener plastic flasks (Labortechnik) containing 10% fetal calf serum (Flor Laboratories) and antibiotics. Stock cultures were refed twice weekly and were subcultured at. weekly intervals or sooner if required. The BL6 mouse melanoma cells were supplied by Dr. C. Albrecht, Department of Pharmacology, University of Stellenbosch, South Africa.
Duplicates were set up for the three densities.
The culture flasks were incubated in a humidified atmosphere of 5% C02, 95% air at 37°C. At the end of the two weeks period the culture flasks were stained using a 0.1% Amidoschwarz stain solution.

[6] = test system: Human osteogenic sarcoma cells; experiment: Colony growth over three weeks with fatty acids or prostaglandins, Amidoschwarz stain; format: cell-based
Experimental: Human osteogenic sarcoma cells were seeded into 50 ml Greiner plastic flasks and maintained exactly as explained in Example 4.
At the end of three weeks the culture flasks were stained with a 0.1% Amidoschwarz stain solution.

[7] = test system: MG63 Human osteogenic sarcoma cells; experiment: Colony formation after 7 days with two additions of fatty acid; format: cell-based
Experimental: MG63 Human osteogenic sarcoma cells were seeded in culture flasks as described in Examples 4 and 5. 2,000 cells were seeded in each flask. Duplicate sets of flasks were used for each of the fatty acids tested. The following fatty acids dissolved in standard growth medium were added to the cells in culture, after allowing 2 days for cell attachment, and again after a further 3 days. Each culture therefore had only 2 additions of the relevant fatty acid. The cells were stained and examined at the end of 7 days in culture: • 1. Culture medium only - control. • 2. 5, 10, 20, 40, 60, 80 and 100µg oleic acid respectively /ml culture medium. […] 5; 10, 20, 40, 60, 80 and 100µg LA respectively /ml culture medium. • 4. 5, 10, 20, 40, 60, 80 and […] ALA respectively ./ml culture. medium. • 5. 5, 10, 20, 40, 60, 80 and 100µg/ml AA respectively /ml culture medium. • 6. 5, 10, 20, 40, 60, 80 and 100µg/ml EPA respectively /ml culture medium. • ..7.

Compound: CCCCC/C=C\C/C=C\C/C=C\CCCCC(=O)O [GLA, gamma linolenic acid]
- percentage reduction of growth rate (-GR%) (BL6 mouse melanoma cells [1]): about 70%
- response of growth rate to GLA (MDBK bovine kidney cells): no apparent response
- inhibition at 10 µg/mL (BL6 mouse melanoma cells [2]; read-out: reduction in methionine uptake): 58.9%
- inhibition at 10 µg/mL (BL6 mouse melanoma cells [2]; read-out: reduction in thymidine uptake): 59.1%
- inhibition at 20 µg/mL (human hepatoma cells; 24 h, day 1, versus control flasks (negative = more cells than control)): -44%
- inhibition at 20 µg/mL (human hepatoma cells; 48 h, day 2, versus control flasks): 66%
- inhibition at 20 µg/mL (human hepatoma cells; 72 h, day 3, versus control flasks): 78%
- inhibition at 20 µg/mL (human hepatoma cells; 96 h, day 4 Run 1, versus control flasks): 87%
- inhibition at 20 µg/mL (human hepatoma cells; 96 h, day 4 Run 2, versus control flasks): 78%
- GLA supplemented cell number (x10^4) Mean (human hepatoma cells; day 1): 8,12 x10^4
- GLA supplemented cell number (x10^4) Mean (human hepatoma cells; day 2): 3,79 x10^4
- GLA supplemented cell number (x10^4) Mean (human hepatoma cells; day 3): 3,35 x10^4
- GLA supplemented cell number (x10^4) Mean (human hepatoma cells; day 4 Run 1): 2,96 x10^4
- GLA supplemented cell number (x10^4) Mean (human hepatoma cells; day 4 Run 2): 7,25 x10^4
- difference between growth rates of GLA supplemented and control cells (human hepatoma cells; single dose of GLA 20 µg/ml on day 1, after four days): no significant difference
- cell count (human hepatoma cells; single dose of GLA 20 µg/ml on day 1, counted after four days, n = 8, spread printed ± 4.85): 19.81 x 104
- Cell count (x 10^6) + GLA Mean ([3]; day 2): 0,14 x 10^6
- Cell count (x 10^6) + GLA Mean ([3]; day 3): 0,22 x 10^6
- Cell count (x 10^6) + GLA Mean ([3]; day 4): 0,31 x 10^6
- Cell count (x 10^6) + GLA Mean ([3]; day 5): 0,68 x 10^6
- Cell count (x 10^6) + GLA Mean ([3]; day 6): 0,63 x 10^6
- Cell count (x 10^6) + GLA Mean ([3]; day 7): 1,82 x 10^6
- Cell count (x 10^6) + GLA Mean ([3]; day 8): 2.04 x 10^6
- growth suppressive effect ([3]; oesophageal carcinoma cells, end of the eight day period, 11520 min): 69%
- mean number of GLA supplemented cells compared with unsupplemented cells ([4]; MDBK cells, end of the seven day period): exceed
- Cell count (x 10^6) + GLA Mean ([4]; day 2): 0,43 x 10^6
- Cell count (x 10^6) + GLA Mean ([4]; day 3): 0,70 x 10^6
- Cell count (x 10^6) + GLA Mean ([4]; day 6): 1,53 x 10^6
- Cell count (x 10^6) + GLA Mean ([4]; day 7): 1,81 x 10^6
- growth and proliferation (BL6 mouse melanoma cells [5]): completely suppressed
- colonies observed (BL6 mouse melanoma cells [5]; 500, 1,000 or 2,000 cells seeded per flask): not a single colony
- growth suppressive effect on the cancer cells in culture (summary) ([6]; 20 µg/ml of medium added every second day): complete growth suppressive effect
- colonies in supplemented cultures ([6]; 20 µg/ml of medium added every second day, 500, 1,000 and 2,000 cell density cultures): completely devoid of any colonies
- suppressive action on proliferation and colony formation ([7]; dose series 5 to 100 µg/ml, 2 additions): almost equal, progressive, suppressive action
- cell growth and colony formation ([7]; levels of supplementation above 40 µg/ml culture medium, 2 additions): completely suppressed
- cells or colonies found on microscopic examination ([7]; supplementation levels between 40 and 100 µg/ml): Not a single cell or colony of cells could be found
